The text below walks through data of US6596771B2, “Drugs for treating viral infections” (priority 2001, dated 2003).

For series [1], the system named is cowpox virus. Format: cell-based.
A further series relates to cowpox. Also on record: species or system female BALB/c mice. Conditions: mouse, in vivo.
The test system of the next series is stationary HFF cells. As to the kind of experiment: Neutral Red Uptake Assay (toxicity). It counts as cell-based, human.
Series [2] concerns Vaccinia Virus. It counts as cell-based.
Series [3] concerns cowpox virus. It counts as cell-based. The source holds these as a separate data set.
The subject of series [4] is Vaccinia Virus. It counts as cell-based. The source holds these as a separate data set.

Converted amounts (≈) assume the structure as drawn. Like-named read-outs stand apart in the source and are kept apart here.

Regarding `O=S(=O)([N-]S(=O)(=O)NC12CC3CC(CC(C3)C1)C2)NC12CC3CC(CC(C3)C1)C2.[Na+]` [Example 11], in the series on cowpox virus [1], the EC50 was 0.50 microgram/mL and the EC90 was 2.10 microgram/mL. In the series with cowpox, the “Lung titer on Day 3” value turned out to be 6.6±1.3. In the series with stationary HFF cells, this molecule showed a CC50 of 87.6 microgram/mL. In the series with Vaccinia Virus [2], this molecule had an EC50 of 0.04 microgram/mL and an EC90 of 0.11 microgram/mL.

Consider `Nc1ccn(C[C@@H](CO)OCP(=O)(O)O)c(=O)n1` [CDV, reference compound], for which the “concentration at which active in these cells” value with cowpox virus [3] is listed as “about 12.0 microgram microgram/mL”. In addition, the EC50 with cowpox virus [1] is reported as 2.30 microgram/mL; in the series on Vaccinia Virus [2], 1.80 microgram/mL.

As for `O=S(=O)(NC12CC3CC(CC(C3)C1)C2)NS(=O)(=O)NC12CC3CC(CC(C3)C1)C2` [Example 1, N,N^1-Bis(tricyclo[3.3.1.1^3,7]dec-1-yl)imidodisulfamide], the CC50 with HFF cells worked out at 77.80 microgram/mL. The EC90 in the series on Vaccinia Virus [2] is 1.40 microgram/mL; in the series with Vaccinia Virus [4] it was 0.15 µg/mL (≈ 0.338 µM).
